Reference: US10512656B2, “Compositions and methods for the treatment of lysosomal storage disorders and disorders characterized by lysosomal dysfunction” (Baylor College of Medicine, priority 2016, dated 2019)

Legend:
TFEB = TFEB nuclear translocation in HeLa/TFEB cells; type: cell-based, human
Experimental: Control (Coriell Institute, USA) and JNCL fibroblasts (Gaslini Institute, Italy) were grown in DMEM (1:1, HyClone) supplemented with 10% heat-inactivated fetal bovine serum (FBS, Atlanta Biologicals), 2 mM L-glutamine, 100 U/ml penicillin and […] streptomycin (Invitrogen). HeLa cells were incubated for 2 h with LY294002 ([…], Cell Signaling), Torin 1 (300 nM, Cayman Chemical) or for 24 h with trehalose (100 mM, Sigma), rapamycin (300 nM, Sigma), MK2206 (1 μM, Selleckchem), U0126 ([…], Tocris) and dialyzed serum (GE Healthcare Life Sciences) for 30 min. For immunofluorescence assay, cells were grown on coverslips in 24-well plates. After the treatment, cells were washed with PBS and fixed with methanol for 10 min. Cells were then blocked with blocking reagent (0.1% saponin, 10% bovine serum in PBS) for 1 h and incubated with appropriate primary antibody(s) (1:100) for 3 h at room temperature. After three washes with PBS, the cells were incubated with appropriate secondary antibodies (1:500) for 1 h at room temperature. Coverslips were then mounted with vectashield containing 4,6-diamidino-2-phenylindole (H-1200) for imaging via confocal microscopy. Cell pellets were resuspended in lysis buffer (10 mM Hepes pH 7.9, 10 mM KCl, 0.1 mM EDTA and 0.4% Nonidet P40) with inhibitors by pipetting and kept in ice for 30 min. After 1 min of spin at full speed, the supernatant was collected as cytosolic fraction. The pellet was washed twice with lysis buffer and resuspended with nuclear buffer (20 mM Hepes pH 7.9, 0.4M NaCl and 1 mM EDTA) containing phosphatases and proteases inhibitors. After 15 min of vigorous shaking on an Eppendorf shaker, the pellet was spun down at full speed for 10 min. The supernatant was used as the nuclear fraction.

TFE3 = TFE3 nuclear translocation in HeLa cells; type: cell-based, human; conditions: HeLa cells transfected with TFE3-3×Flag
Source text: FIG. 23. Pharmacological inhibition of AKT induces nuclear translocation of TFE3 and MITF. HeLa cells were transiently transfected with TFE3-3×Flag (a) and MITF-3×Flag (b) and analyzed by confocal microscopy. Scale bar is 10 μm.

lysosomal genes = assay: Real-time qPCR in primary cortical neuron cultures; type: cell-based, mouse; conditions: cortical neurons from WT and Cln3^Δex7-8 embryos, 100 mM trehalose
Experimental: Cortical and Hippocampal neurons were prepared from E17.5 and postnatal day 0-1 mice and plated on poly-D-lysine coated six-well plates (BD Biosciences) in Neurobasal medium supplemented with GlutaMAX-I (Invitrogen), B-27 and 1% FBS. At days in vitro (DIV) 4, neurons were treated with 100 mM trehalose. At DIV 8, neurons were collected and RNA extraction was performed.
Total RNA was extracted from the control and JNCL fibroblasts and from WT and Cln3^Δex7-8 cortical neuron cultures using the RNEasy kit (Qiagen) according to the manufacturer's instructions. Half of the mouse brain was processed for the RNA extraction and one microgram was used for complementary DNA synthesis by QuantiTect Reverse Transcription kit (Qiagen). The primers for PCR with reverse transcription reactions are listed in Table St Quantitative real-time PCR was performed by using iQ SYBR Green Supermix on the CFX96 Touch Real-Time Detection System (Bio-Rad Laboratories). Samples were heated for 3 min at 95° C. and amplified in 39 cycles for 11 s at 95° C., 45 s at 60° C. with last cycle of 10 s at 95° C., 5 s at 65° C. and 5 s at 95° C. Analyses were conducted using CFX manager software (Bio-Rad) and the threshold cycle (CT) was extracted from the PCR amplification plot. Relative gene expression was determined using the ΔΔCT method, normalizing to GAPDH (for human genes) and cyclophilin (for mouse genes). […]

ERK = ERK inhibition check; type: cell-based
Experimental: Brain tissue and cultured cells were collected and lysed in RIPA buffer (50 mM Tris-HCl, ph 7.4, 1% NP40, 0.5% Na-deoxycholate, 0.1% SDS, 150 mM NaCl, 2 mM EDTA and 50 mM NaF) including a cocktail of protease (Roche) and phosphatase (SIGMA) inhibitors. Protein concentrations were measured with the bicinchoninic acid protein assay kit (Pierce, Rockford, Ill.), using bovine serum albumin as standard. Lysates were separated via SDS-polyacrylamide gel electrophoresis (PAGE) and then transferred to nitrocellulose membranes. Blots were incubated in blocking buffer (5%, w/v, dried skimmed milk in Tris-buffered saline, pH 7.4 and 0.2% Tween 20, TBST) followed by overnight incubation with appropriate antibodies diluted in blocking buffer (5% dry milk). Western blot images were acquired by LAS 4000 (GE Healthcare) and quantified using ImageJ. Images have been cropped for presentation.

Cln3^Δex7-8 mice = assay: Life span assessment, oral trehalose; type: in vivo, mouse
Experimental: Cln3^Δex7-8 mice (stock no. 004685; Cln3^tm1.1Mem/J; CD-1 background)^32 were obtained from the Jackson Laboratory. Control (CD-1) and Cln3^Δex7-8 mice were housed 3-4 per cage in a room with a 12-h light/12-h dark cycle. Food and water were provided ad libitum. All mice used in this study were analyzed at 8 and 12 months of age and were littermates produced by crossing heterozygous Cln3^Δex7-8 mice. Only males were used for this analysis. Investigators were blinded when analyzing the data, and no randomization was necessary. No data were excluded from this study.
Trehalose (Swanson) was dissolved in drinking water to a final concentration of 2% and changed twice a week. Trehalose-containing water was given to Cln3^Δex7-8 and WT mice by spontaneous oral administration starting at 21 days of age and continuing until the day the mice died naturally (life span assessment) or were sacrificed for other studies.

Compound | TFEB nuclear translocation on kinase inhibitors (TFEB; confocal microscopy and subcellular fractionation) | TFE3 nuclear translocation (TFE3) | expression of lysosomal genes (lysosomal genes) | cells with nuclear TFEB (TFEB; trehalose within 24 h, untreated 20%) [%] | ERK inhibition (ERK) | median survival (Cln3^Δex7-8 mice; Cln3^Δex7-8 mice, 2% trehalose in drinking water from 21 days of age, untreated 454 days) [days] | maximum life span (Cln3^Δex7-8 mice; Cln3^Δex7-8 mice, oral trehalose, untreated 544 days) [days] | increase of maximum life span (Cln3^Δex7-8 mice; treated vs untreated Cln3^Δex7-8 mice) [%] | increase of median survival (Cln3^Δex7-8 mice; treated vs untreated Cln3^Δex7-8 mice, log-rank P=0.00566) [%]
Cl.NC1(c2ccc(-c3nc4ccn5c(=O)[nH]nc5c4cc3-c3ccccc3)cc2)CCC1 [MK2206, 8-[4-(1-aminocyclobutyl)phenyl]-9-phenyl-1,2,4-triazolo[3,4-f][1,6]naphthyridin-3(2H)-one] | nuclear translocation of TFEB | promoted nuclear translocation of these two factors | – | – | – | – | – | – | –
OC[C@H]1O[C@H](O[C@H]2O[C@H](CO)[C@@H](O)[C@H](O)[C@H]2O)[C@H](O)[C@@H](O)[C@@H]1O [trehalose, a-D-glucopyranosyl a-D-glucopyranoside] | – | – | transcriptional activation of lysosomal genes | > 80 | does not inhibit ERK | 522 | 699 | 28 | 15
